Tests used:
Format in all cases: physicochemical
[1] = Stability in 0.1% solutions or suspensions, 1 week 80° C. (pH stability study); parameters: key to CL color: A: No change of color; B: Slight discoloration; C: Medium discoloration; D: Strong discoloration; —: Test not performed; key to Suspension or clear solution after stress test: ↓: Suspension; *: Clear solution after stress test; conditions: for Suspension or clear solution after stress test: 0.1%
Experimental: In a pH stability study, 0.1% suspension/solutions of the compound of Formula (I) in buffer solutions of various pHs were exposed to 80° C. for one week. The compound of Formula (I) degraded the most in pH 1 buffer, about 5%, whereas at high pH degradation was less than 1% after 1 week at 80° C.

[2] = Solid state bulk stability, 1 week 80° C. tight container and 80° C./75% RH; conditions: for Bulk (XRPD) solid form after stress / DP[%] degradation products, Bulk (HPLC): Solid state
[3] = Stability 1% in excipient mixtures, 2 weeks 50° C.
Text: (§1) Both solid forms of the Compound of Formula (I) are also stable in mixtures with excipients.

[4] = Xenon light stress (1200 kLuxh); parameters: key to CL color: A: No change of color; B: Slight discoloration; C: Medium discoloration; D: Strong discoloration; —: Test not performed; conditions: for Bulk (XRPD) solid form after stress / CL color / DP[%] degradation products, Bulk (HPLC): Xenon light (1200 kLuxh); for CL color: bulk
Text: as §1

[5] = Hygroscopicity / water uptake
Experimental: The maximum water uptake of Form A is 0.6% at 95% relative humidity at 25° C. Form A is stable at water activity of aw=0.7 at 25° C.
Form A is an anhydrous crystalline form with a melting onset of about 208° C. and melting enthalpy of about 111-119 J/g.

[6] = Slurry experiments of Form A and Hydrate HA in media with different water activities
Experimental: Form A is stable at water activities of aw=0.7 and below, whereas the hydrate is stable at aw=0.9 and above. At 40° C. Form A is stable at water activities of aw=0.8 and below, whereas the hydrate is stable at aw>0.95.

[7] = Competitive slurry experiments and equilibration studies in solvents; conditions: for Outcome of competitive slurry experiment with Form A: 25° C.
[8] = Solid form transformation / decomposition upon heating
Experimental: DSC thermograms were recorded with a TA Discovery DSC instrument using heat flux compensation (TA Instruments, USA). The TA Discovery instrument was calibrated for temperature and enthalpy according to the manufacturer's instructions using certified reference substances like indium. About 2 mg of sample material was sealed in a standard pin-holed aluminum pan and heated in the DSC from 0° C. to 300° C., at a heating rate of 10° C./min. Dry nitrogen gas, at a flow rate of 50 ml/min was used to purge the DSC equipment during the measurement.
Thermogravimetric analysis was performed using a TA Discovery TGA instrument (TA Instruments, USA). About 2-10 mg of sample material was sealed in a standard aluminum pan with pierced lid and heated in the TGA from 30° C. to 250° C., at a heating rate of 10° C./min. Dry N2 gas, at a flow rate of 20 ml/min was used to purge the TGA equipment during the measurement.

[9] = Stability in 0.1% solutions or suspensions, 1 week 80° C. (pH stability study); parameters: key to CL color: A: No change of color; B: Slight discoloration; C: Medium discoloration; D: Strong discoloration; —: Test not performed; key to Suspension or clear solution after stress test: ↓: Suspension; *: Clear solution after stress test; conditions: for CL color / DP[%] degradation products (HPLC area-%): 0.1% solution or suspension; for CL color / DP[%] degradation products (HPLC area-%) / Suspension or clear solution after stress test: 1 week 80° C.; for Suspension or clear solution after stress test: 0.1%
Humidity controlled XRPD = test: Humidity controlled XRPD
[10] = 80° C. and 80° C. and 75% RH for one week
[11] = 1 week 80° C., tight container, listed as Modification A (NX-27)
[12] = listed as Modification A (NX-27)

O=C1CC2(CCN(C(=O)NCc3ccc(F)cc3)CC2)Nc2ccc(F)cc21 [Form A, 6′-fluoro-N-(4-fluorobenzyl)-4′-oxo-3′,4′-dihydro-1′H-spiro[piperidine-4,2′-quinoline]-1-carboxamide]
DP[%] degradation products (HPLC area-%) ([1]; 0.1% solution or suspension, NMP): 14.3%
CL color ([1]; 0.1% solution or suspension, pH 4.7, acetate buffer): A
Suspension or clear solution after stress test ([1]; Water): ↓
Suspension or clear solution after stress test ([1]; pH 1.0, 0.1N HCl): ↓
Suspension or clear solution after stress test ([1]; pH 3.0, citrate buffer): ↓
Suspension or clear solution after stress test ([1]; pH 6.8, phosphate buffer): ↓
Suspension or clear solution after stress test ([1]; pH 9.0, borate buffer): ↓
Chemical stability in the bulk [2, 10]: chemically stable
Bulk (XRPD) solid form after stress [2, 11]: No change
DP[%] degradation products, Bulk (HPLC) [2, 11]: 0.6%
DP[%] degradation products, Bulk (HPLC) ([2]; 1 week 80° C./75% RH): 0.7%
Bulk (XRPD) solid form after stress ([2]; 1 week 80° C./75% RH, listed as Modification A (NX-27)): No change
Physical stability in bulk ([2]; bulk): physically stable
DP[%] degradation products ([3]; 1% in mixture 1 (Dry Blend), 2 weeks 50° C., tight container, listed as Modification A (NX-27)): 0.4%
DP[%] degradation products ([3]; 1% in mixture 1 (Dry Blend), 2 weeks 50° C./75% RH, listed as Modification A (NX-27)): 0.4%
DP[%] degradation products ([3]; 1% in mixture 2 (Wet granulation), 2 weeks 50° C., tight container, listed as Modification A (NX-27)): 0.4%
DP[%] degradation products ([3]; 1% in mixture 2 (Wet granulation), 2 weeks 50° C./75% RH, listed as Modification A (NX-27)): 0.4%
DP[%] degradation products ([3]; 1% in mixture 3 (Roller compaction), 2 weeks 50° C., tight container, listed as Modification A (NX-27)): 0.4%
DP[%] degradation products ([3]; 1% in mixture 3 (Roller compaction), 2 weeks 50° C./75% RH, listed as Modification A (NX-27)): 0.4%
Bulk (XRPD) solid form after stress [4]: No change
CL color [4, 12]: B
DP[%] degradation products, Bulk (HPLC) [4, 12]: 1.2%
Increase in degradation products upon light stress ([4]; listed as Modification A): 0.6%
Hygroscopicity [5]: slightly hygroscopic
Maximum water uptake ([5]; 95% relative humidity at 25° C.): 0.6%
Water activity (aw) at which the form is stable ([6]; 40° C.): ≤ 0.8
Crystal structure after slurrying (equilibration) for prolonged time ([7]; various solvents): preserves its crystal structure
Thermal decomposition temperature ([8]; TGA): 240 °C
CL color ([9]; Acetonitrile): A
DP[%] degradation products (HPLC area-%) ([9]; Acetonitrile): 1.2%
CL color ([9]; Dioxane): A
DP[%] degradation products (HPLC area-%) ([9]; Dioxane): 56.8%
CL color ([9]; Ethanol): A
DP[%] degradation products (HPLC area-%) ([9]; Ethanol): 16.6%
CL color ([9]; MEK): A
DP[%] degradation products (HPLC area-%) ([9]; MEK): 7.6%
CL color ([9]; NMP): A
CL color ([9]; Water): A
DP[%] degradation products (HPLC area-%) ([9]; Water): 1.2%
CL color ([9]; pH 1.0, 0.1N HCl): A
DP[%] degradation products (HPLC area-%) ([9]; pH 1.0, 0.1N HCl): 5.6%
CL color ([9]; pH 3.0, citrate buffer): A
DP[%] degradation products (HPLC area-%) ([9]; pH 3.0, citrate buffer): 1.5%
DP[%] degradation products (HPLC area-%) ([9]; pH 4.7, acetate buffer): 1.4%
CL color ([9]; pH 6.8, phosphate buffer): A
DP[%] degradation products (HPLC area-%) ([9]; pH 6.8, phosphate buffer): 1.2%
CL color ([9]; pH 9.0, borate buffer): A
DP[%] degradation products (HPLC area-%) ([9]; pH 9.0, borate buffer): 1.1%
Suspension or clear solution after stress test ([9]; Acetonitrile): *
Suspension or clear solution after stress test ([9]; Dioxane): *
Suspension or clear solution after stress test ([9]; Ethanol): *
Suspension or clear solution after stress test ([9]; MEK): *
Suspension or clear solution after stress test ([9]; NMP): *
Suspension or clear solution after stress test ([9]; pH 4.7, acetate buffer): ↓

O=C1CC2(CCN(C(=O)NCc3ccc(F)cc3)CC2)Nc2ccc(F)cc21 [amorphous, 6′-fluoro-N-(4-fluorobenzyl)-4′-oxo-3′,4′-dihydro-1′H-spiro[piperidine-4,2′-quinoline]-1-carboxamide]
Chemical stability in the bulk [2, 10]: chemically stable
Solid form change of bulk under stress [2, 10]: crystallized into the crystalline Modification A
Bulk (XRPD) solid form after stress ([2]; 1 week 80° C., tight container): NX Mod A
DP[%] degradation products, Bulk (HPLC) ([2]; 1 week 80° C., tight container): 0.7%
Bulk (XRPD) solid form after stress ([2]; 1 week 80° C./75% RH): NX Mod A
DP[%] degradation products, Bulk (HPLC) ([2]; 1 week 80° C./75% RH): 0.7%
DP[%] degradation products ([3]; 1% in mixture 1 (Dry Blend), 2 weeks 50° C., tight container): 0.8%
DP[%] degradation products ([3]; 1% in mixture 1 (Dry Blend), 2 weeks 50° C./75% RH): 0.8%
DP[%] degradation products ([3]; 1% in mixture 2 (Wet granulation), 2 weeks 50° C., tight container): 0.8%
DP[%] degradation products ([3]; 1% in mixture 2 (Wet granulation), 2 weeks 50° C./75% RH): 0.8%
DP[%] degradation products ([3]; 1% in mixture 3 (Roller compaction), 2 weeks 50° C., tight container): 0.8%
DP[%] degradation products ([3]; 1% in mixture 3 (Roller compaction), 2 weeks 50° C./75% RH): 0.8%
Bulk (XRPD) solid form after stress [4]: No change
DP[%] degradation products, Bulk (HPLC) [4]: 0.7%
CL color [4]: A
Increase in degradation products upon light stress ([4]; listed as amorphous form): no degradation was observed

O=C1CC2(CCN(C(=O)NCc3ccc(F)cc3)CC2)Nc2ccc(F)cc21 [Form D, 6′-fluoro-N-(4-fluorobenzyl)-4′-oxo-3′,4′-dihydro-1′H-spiro[piperidine-4,2′-quinoline]-1-carboxamide]
Outcome of competitive slurry experiment with Form A [7]: will convert into Form A
Temperature of transformation into Form A upon heating ([8]; heating): above 190 °C

O=C1CC2(CCN(C(=O)NCc3ccc(F)cc3)CC2)Nc2ccc(F)cc21 [compound of Formula (I), 6′-fluoro-N-(4-fluorobenzyl)-4′-oxo-3′,4′-dihydro-1′H-spiro[piperidine-4,2′-quinoline]-1-carboxamide]
Degradation ([9]; 0.1% suspension/solution at high pH, 1 week at 80° C.): less than 1%
Degradation ([9]; 0.1% suspension/solution in pH 1 buffer, 80° C., one week): about 5%

O=C1CC2(CCN(C(=O)NCc3ccc(F)cc3)CC2)Nc2ccc(F)cc21 [Hydrate HA, 6′-fluoro-N-(4-fluorobenzyl)-4′-oxo-3′,4′-dihydro-1′H-spiro[piperidine-4,2′-quinoline]-1-carboxamide]
Water activity (aw) at which the form is stable ([6]; 25° C.): ≥ 0.9
Water activity (aw) at which the form is stable ([6]; 40° C.): > 0.95
Form change after exposure to low humidity (Humidity controlled XRPD; about 12 hours at 5% RH): XRPD pattern changed to Form E
Stability of form in humidity controlled XRPD (Humidity controlled XRPD; relative humidity decreased from 40% RH to 5% RH at 25° C.): remains stable
Temperature of transformation into Form E ([8]; heating): about 70 °C

O=C1CC2(CCN(C(=O)NCc3ccc(F)cc3)CC2)Nc2ccc(F)cc21 [Form C, 6′-fluoro-N-(4-fluorobenzyl)-4′-oxo-3′,4′-dihydro-1′H-spiro[piperidine-4,2′-quinoline]-1-carboxamide]
Outcome of competitive slurry experiment with Form A [7]: conversion of Form C into Form A
Transition temperature Form C / Form A (enantiotropic relationship) ([7]; based on competitive slurry experiments): below 25 °C
Temperature of transformation into Form A upon heating ([8]; heating): about 150 °C

Source: patent US20250353847A1, “CRYSTALLINE FORMS OF AN AKRIC3 DEPENDENT KARS INHIBITOR” (Novartis AG, priority 2022, published 2025)
